Test results published in patent publication US20070276011A1, “Plasminogen Activator Inhibitor-1 Inhibitor” (priority 2003, published 2007).

These molecules were tested against recombinant human PAI-1 (Homo sapiens, UniProt P05121) (assay: PAI-1 inhibitory activity, Test Method A (tPA fluorogenic substrate, Tris buffer pH8.0, 37 C)). Settings: 25 μM test compound; Test Method A.
Format: biochemical

Chain of recombinant human PAI-1 (P05121 24-402): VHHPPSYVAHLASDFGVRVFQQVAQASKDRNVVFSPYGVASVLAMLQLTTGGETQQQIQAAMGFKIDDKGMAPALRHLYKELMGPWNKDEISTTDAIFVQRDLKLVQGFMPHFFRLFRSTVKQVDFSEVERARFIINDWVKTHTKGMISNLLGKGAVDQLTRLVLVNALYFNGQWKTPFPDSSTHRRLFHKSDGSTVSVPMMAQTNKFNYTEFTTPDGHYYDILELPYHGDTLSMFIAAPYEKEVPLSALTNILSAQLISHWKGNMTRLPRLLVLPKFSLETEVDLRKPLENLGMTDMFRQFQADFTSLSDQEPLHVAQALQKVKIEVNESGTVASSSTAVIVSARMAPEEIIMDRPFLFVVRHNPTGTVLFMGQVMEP

| Structure (SMILES) | Inhibitory Ratio at 25 μM (%) |
| --- | --- |
| O=C(OCc1ccccc1)c1cc(C=C2SC(=O)N(Cc3cc(C(F)(F)F)ccc3C(F)(F)F)C2=O)ccc1O [compound 363, 5-(3-Benzyloxycarbonyl-4-hydroxybenzylidene)-3-[2,5-bis(trifluoromethyl)benzyl]thiazolidine-2,4-dione] | 84 |
| CCOC1=NN(c2ccc([N+](=O)[O-])cc2)C(=O)C1=Cc1c(O)cccc1O [compound 552] | 95 |
| COc1cc(C=C2C(=O)N(c3ccc(Cl)c(Cl)c3)N=C2C(C)C)cc(C(=O)O)c1O [compound 559] | >99 |
| O=C1SC(=Cc2c[nH]c3ccccc23)C(=O)N1Cc1ccc(Cl)c(Cl)c1 [compound 410, 5-(indol-3-ylmethylene)-3-(3,4-dichlorobenzyl)thiazolidine-2,4-dione] | 36 |
| COc1cc(C=C2SC(=O)N(Cc3ccc(Cl)c(Cl)c3)C2=O)cc(OC)c1OC [compound 348] | 44 |
| CCOC1=NN(c2ccc([N+](=O)[O-])cc2)C(=O)C1=Cc1c(Br)ccc(O)c1O [compound 551] | 75 |
| CCOC1=NN(c2ccc([N+](=O)[O-])cc2)C(=O)C1=Cc1cc(O)c(O)cc1Br [compound 557, 4-(2-Bromo-4,5-dihydroxybenzylidene)-1-(4-nitrophenyl)-3-ethoxy-2-pyrazolin-5-one] | 82 |
| O=C(Nc1cc(C(F)(F)F)cc(C(F)(F)F)c1)c1cc(C=C2SC(=O)N(Cc3ccc(Cl)c(Cl)c3)C2=O)ccc1O [compound 404] | >99 |
| CC(C)C1=NN(Cc2ccc(Cl)c(Cl)c2)C(=O)C1=Cc1cc(O)c(O)cc1O.N=C(N)NCCC[C@H](N)C(=O)O.N=C(N)NCCC[C@H](N)C(=O)O.N=C(N)NCCC[C@H](N)C(=O)O [compound 553, tri(L-(+)-arginine) salt of 4-(2,4,5-trihydroxybenzylidene)-1-(3,4-dichlorobenzyl)-3-isopropyl-2-pyrazolin-5-one] | >99 |
| O=C(Nc1cc(C(F)(F)F)ccc1Oc1ccc(O)cc1)c1cc(C=C2SC(=O)N(Cc3ccc(Cl)c(Cl)c3)C2=O)ccc1O [compound 422] | 95 |
| O=C1SC(=Cc2ccc(O)c(O)c2)C(=O)N1Cc1ccc(Nc2ccccc2)cc1 [compound 302, 5-(3,4-Dihydroxybenzylidene)-3-[4-(phenylamino)benzyl]thiazolidine-2,4-dione] | >99 |
| O=C(Nc1ccc(O)c(O)c1)c1cc(C=C2SC(=O)N(Cc3ccc(Cl)cc3Cl)C2=O)ccc1O [compound 398] | >99 |
| O=C1SC(=Cc2cccc(O)c2O)C(=O)N1Cc1ccc(Nc2ccccc2)cc1 [compound 309] | >99 |
| COc1ccc(Cl)cc1NC(=O)c1cc(C=C2SC(=O)N(Cc3ccc(Cl)c(Cl)c3)C2=O)ccc1O [compound 454] | >99 |
| O=C(Nc1cc(Cl)ccc1C(=O)O)c1cc(C=C2SC(=O)N(Cc3ccc(Cl)c(Cl)c3)C2=O)ccc1O [compound 458] | >99 |
| CC(C)C1=NN(c2ccc(C(=O)O)cc2)C(=O)C1=Cc1cc(C=Cc2ccccc2)ccc1O [compound 534] | 64 |
| O=C(Nc1ccc(O)cc1)c1cc(C=C2SC(=O)N(Cc3ccc(Cl)c(Cl)c3)C2=O)ccc1O [compound 354] | 72 |
| COc1ccc(NC(=O)c2cc(C=C3SC(=O)N(Cc4ccc(Cl)cc4Cl)C3=O)ccc2O)cc1OC [compound 397, 5-[4-Hydroxy-3-(3,4-dimethoxyphenylcarbamoyl)benzylidene]-3-(2,4-dichlorobenzyl)thiazolidine-2,4-dione] | >99 |
| O=C1SC(=Cc2cn(Cc3ccc(OCc4ccccc4)c(OCc4ccccc4)c3)c3ccccc23)C(=O)N1Cc1ccc(Cl)c(Cl)c1 [compound 411, 5-[1-(3,4-dibenzyloxybenzyl)indol-3-ylmethylene]-3-(3,4-dichlorobenzyl)thiazolidine-2,4-dione] | 95 |
| COc1ccc(C(=O)Nc2cc(C=C3SC(=O)N(Cc4ccc(Cl)c(Cl)c4)C3=O)ccc2OC)cc1 [compound 381, 5-[4-methoxy-3-(4-methoxybenzoylamino)benzylidene]-3-(3,4-dichlorobenzyl)thiazolidine-2,4-dione] | 27 |
| COc1cc(C=C2SC(=O)N(Cc3ccc(Cl)c(Cl)c3)C2=O)cc(C(=O)O)c1O [compound 345, 5-(3-Methoxy-4-hydroxy-5-carboxybenzlidene)-3-(3,4-dichlorobenzyl)thiazolidine-2,4-dione] | 89 |
| O=C(CCc1ccccc1)Nc1ccc(CN2C(=O)SC(=Cc3ccc(O)c(O)c3)C2=O)cc1 [compound 315] | 39 |
| COCC1=NN(c2cc(Cl)cc(Cl)c2)C(=O)C1=Cc1cc(Br)ccc1O [compound 521, 4-(2-Hydroxy-5-bromobenzylidene)-1-(3,5-dichlorophenyl)-3-methoxymethyl-2-pyrazolin-5-one] | >99 |
| O=C(O)c1ccc(NC(=O)c2cccc(C=C3SC(=O)N(Cc4ccc(Cl)c(Cl)c4)C3=O)c2)cc1 [compound 389, 5-[3 (4-Carboxyphenylcarbamoyl)benzylidene]-3-(3,4-dichlorobenzyl)thiazolidine-2,4-dione] | >99 |
| O=C1C(=Cc2cc(O)c(O)c(O)c2)SC(=S)N1Cc1ccc(Cl)c(Cl)c1 [compound 303] | >99 |
| COc1ccc(Oc2ccc([N+](=O)[O-])c(C=C3C(=O)N(c4ccc(Cl)c(Cl)c4)N=C3C(C)C)c2)cc1OC [Compound No. 563, 4-[2-Nitro-5-(3,4-dimethoxyphenoxy)benzylidene]-1-(3,4-dichlorophenyl)-3-isopropyl-2-pyrazolin-5-one] | 62 |

Same assay, conditions: 50% inhibitory concentration of PAI-1 activity, according to the aforementioned method

| Structure (SMILES) | IC50 [nM] |
| --- | --- |
| O=C1C(=Cc2cc(O)c(O)c(O)c2)SC(=S)N1Cc1ccc(Cl)c(Cl)c1 [compound 303] | 390 |

Same assay, conditions: test compound 25 μM; Test Method A

| Structure (SMILES) | Inhibitory Ratio at 25 μM (%) |
| --- | --- |
| O=C1SC(=Cc2cccc(O)c2O)C(=O)N1Cc1cc(Cl)cc(Cl)c1 [compound 11, 5-(2,3-Dihydroxybenzylidene)-3-(3,5-dichlorobenzyl)thiazolidine-2,4-dione] | >99 |
| COC(=O)c1cccc(N2N=C(C(F)(F)F)C(=Cc3ccc(SCCN(C)C)s3)C2=O)c1 [compound 178] | 40 |
| CC1=NN(c2cccc(C(=O)O)c2)C(=O)C1=Cc1ccc(-c2cccc([N+](=O)[O-])c2)o1 [compound 193] | 32 |
| COC(=O)c1cccc(-c2ccc(C=C3C(=O)N(c4cccc(C(=O)O)c4)N=C3C)o2)c1 [compound 189] | 21 |
| O=C1C(=Cc2cc(O)c(O)c(O)c2)C(c2ccccc2)=NN1c1cc(Cl)cc(Cl)c1 [compound 131] | >99 |
| CC(C)C1=NN(c2cc(Cl)cc(Cl)c2)C(=O)C1=Cc1cccc(C(=O)O)c1 [compound 212] | 82 |
| Cc1cccc(C=C2SC(=O)N(Cc3cc(C(F)(F)F)cc(C(F)(F)F)c3)C2=O)c1O [compound 6] | 46 |
| CCOC(=O)C1=NN(c2cccc(C(=O)OCC)c2)C(=O)C1=Cc1ccc2c(c1)OCO2 [compound 196] | 54 |
| COC(=O)c1cccc(N2N=C(C(C)C)C(=Cc3ccc(Br)o3)C2=O)c1 [compound 205] | 35 |
| O=C1SC(=Cc2ccc(O)c(O)c2)C(=O)N1Cc1ccc(Cl)c(Cl)c1 [compound 9] | >99 |
| COC(=O)c1cccc(-c2ccc(C=C3C(=O)N(c4ccc(F)cc4)N=C3O)o2)c1 [compound 160] | 50 |
| CC1=NN(c2cccc(C(=O)O)c2)C(=O)C1=Cc1ccccc1 [compound 172] | 32 |
| O=C1SC(=Cc2cc(Br)cc(Br)c2O)C(=O)N1Cc1cc(C(F)(F)F)cc(C(F)(F)F)c1 [compound 2, 5-(3,5-Dibromo-2-hydroxybenzylidene)-3-[3,5-bis(trifluoromethyl)benzyl]-thiazolidine-2,4-dione] | 52 |
| COC(=O)c1cccc(N2N=C(C(C)C)C(=Cc3ccc(Cl)c(Cl)c3)C2=O)c1 [compound 210] | 49 |
| CC1=NN(c2ccc(Cl)c(Cl)c2)C(=O)C1=Cc1cc(Br)ccc1O [compound 102] | 63 |
| O=C1SC(=Cc2ccc(O)c(O)c2)C(=O)N1Cc1ccc(Br)cc1 [compound 37] | >99 |
| CCOC1=NN(c2ccc([N+](=O)[O-])cc2)C(=O)C1=Cc1cc(O)c(O)cc1O [compound 223] | 88 |
| O=C1SC(=Cc2cccc(O)c2O)C(=O)N1Cc1cc(C(F)(F)F)cc(C(F)(F)F)c1 [compound 70] | >99 |
| CC(C)C1=NN(c2cccc(C(=O)O)c2)C(=O)C1=Cc1ccc(-c2cc(Cl)cc(Cl)c2)o1 [compound 211] | 31 |
| O=C1C(=Cc2cc(O)c(O)c(O)c2)C(C(F)(F)F)=NN1c1cc(Cl)cc(Cl)c1 [compound 149] | >99 |
| COc1ccc(OC)c(N2C(=O)C(=Cc3ccc(O)c(O)c3)SC2=S)c1 [compound 75, 5-(3,4-Dihydroxybenzylidene)-3-(2,5-dimethoxyphenyl)rhodanine] | 74 |
| O=C1SC(=Cc2ccc(O)c(O)c2)C(=O)N1Cc1ccc(-c2ccccc2)cc1 [compound 21] | >99 |
| CC1=NN(c2ccc(Cl)c(Cl)c2)C(=O)C1=Cc1cc(O)c(O)c(O)c1 [compound 144, 4-(3,4,5-Trihydroxybenzylidene)-1-(3,4-dichlorophenyl)-3-methyl-2-pyrazolin-5-one] | 53 |
| CC1=NN(c2ccc([N+](=O)[O-])cc2)C(=O)C1=Cc1cc(O)c(O)c(O)c1 [compound 135] | 94 |
| O=C(Nc1ccc(CN2C(=O)SC(=Cc3ccc(O)c(O)c3)C2=O)cc1)c1ccccc1 [compound 83] | 60 |
| COc1cc(CN2C(=O)SC(=Cc3cccc(O)c3O)C2=O)cc(OC)c1 [compound 3, 5-(2,3-Dihydroxybenzylidene)-3-(3,5-dimethoxybenzyl)thiazolidine-2,4-dione] | 71 |
| C=CCOc1ccc(C=C2C(=O)N(c3ccc(Cl)c(C(=O)O)c3)N=C2C)cc1OC [compound 169] | 27 |
